Assay results from PubChem BioAssay AID434987 (Southern Research Specialized Biocontainment Screening …, 2010).
Calls of active or inactive are those of the source. No rule for the calls is given here.

System: M. tuberculosis H37Rv growth inhibition with meropenem
Assay: dose response, H37Rv, with and without meropenem (AID 434987);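 also: growth over 7 days at 37 °C before Alamar Blue read on day 9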
[1] = M. tuberculosis H37Rv growth inhibition, measured here: IC50 without meropenem
[2] = M. tuberculosis H37Rv growth inhibition, measured here: IC90 without meropenem
[3] = measured here: IC90 with meropenem

| Compound | IC50 | IC50 [1] | IC90 [2] | IC90 [3] |
| --- | --- | --- | --- | --- |
| Cn1nnnc1SCC(=O)Nc1ccccc1[N+](=O)[O-] | 28.8 µM | 71.9 µM | > 100 µM | > 100 µM |
| CCOC(=O)C1CSC(CC(=O)Nc2ccc(Cl)c(Cl)c2)C(=O)N1 (stereo unspecified) | 10.8 µM | 47.7 µM | 54.3 µM | 35.4 µM |
| Cc1ccc(-c2nc3[nH]c(=O)cc(NC(=O)C(C)C)n3n2)cc1 | 7.36 µM | > 100 µM | > 100 µM | > 12.5 µM |
| O=C(NN1C(=O)c2cc(Br)ccc2NC1c1ccccc1Cl)c1ccncc1 (stereo unspecified) | 12.5 µM | 35 µM | 50.7 µM | 13.7 µM |
| COc1ccc(-c2cc(C(N)=O)nc(N3CCCCCC3)n2)cc1 | 3.95 µM | > 100 µM | > 100 µM | > 100 µM |
| CNC(=O)Nc1cccc(-c2cc(-c3c(Cl)cccc3Cl)no2)c1 | > 100 µM (inactive) | > 100 µM | > 100 µM | > 100 µM |
| Cc1ccc(CNC(=O)c2ccccc2NC(=O)CSc2nnnn2C)cc1 | 36.6 µM (inactive) | 81.1 µM | > 100 µM | > 100 µM |
| Cc1cc(=O)n2c(-c3ccccc3C)n[nH]c2n1 | 51 µM (inactive) | 62.4 µM | > 100 µM | > 100 µM |
| COc1cccc(NC(=O)C2CC2)c1 | 6.09 µM | > 100 µM | > 100 µM | > 100 µM |
| O=C1OC(/C=C/c2ccccc2)=NC/1=C/c1ccco1 | 0.691 µM | 3.11 µM | 13 µM | 13.9 µM |
| Cc1ccn2c(CNCCn3nc(C)cc3C)c(C(=O)N3CCCCCC3)nc2c1 | > 100 µM (inactive) | > 100 µM | > 100 µM | > 100 µM |
| CCc1cc(C(=O)O)c(NC(=O)/C=C/c2ccc(OC)cc2)s1 | 8.76 µM | 21.5 µM | > 100 µM | 59.7 µM |
| CC(C)Cn1c2c(c(O)c(C(=O)Nc3ccc(F)cc3)c1=O)CCCC2 | 82.2 µM (inactive) | > 100 µM | > 100 µM | > 100 µM |
| Cc1cc(C)c(NC(=O)CC(C)(C)C)c(Cl)c1 | 76.4 µM (inactive) | > 100 µM | > 100 µM | > 100 µM |
| O=C(NNC(=O)c1cc(OCC(F)(F)F)ccc1OCC(F)(F)F)c1cccc(C(F)(F)F)c1 | > 100 µM (inactive) | > 100 µM | > 100 µM | > 100 µM |
| CCOc1ccc(-c2nc(-c3ccccc3C)no2)cc1 | > 100 µM (inactive) | > 100 µM | > 100 µM | > 100 µM |
| Cn1c(=O)[nH]c(=O)c2c1nc(Br)n2CCC(=O)c1ccccc1 | 38.6 µM | > 100 µM | > 100 µM | > 50 µM |
| CC(C(=O)Nc1sc2c(c1C(=O)NCc1ccco1)CCCC2)N1C(=O)c2ccccc2C1=O (stereo unspecified) | 46.1 µM (inactive) | > 100 µM | > 100 µM | > 100 µM |
| CC(C)(C)C1=Nn2c(nnc2-c2ccccc2F)SC1 | 17.3 µM | > 100 µM | > 100 µM | 78.3 µM |
| COc1ccc(C(=O)NC(=S)Nc2ccc(S(=O)(=O)Nc3cc(C)on3)cc2)cc1OC | 13.8 µM | 36.5 µM | > 100 µM | 29 µM |

| Compound | IC50 | IC50 [1] | IC90 [2] | IC90 [3] |
| --- | --- | --- | --- | --- |
| N#CCOC(=O)/C=C/c1ccc2c(c1)OCO2 | 29.7 µM | > 100 µM | > 100 µM | > 50 µM |
| Cc1ccc(C)c(N2CCN(CC3CCCCC3)CC2)c1 | 37.9 µM | 95.9 µM | > 100 µM | 52.4 µM |
| CC(=O)n1cc([C@@H]2C=C(C(=O)N3CCN(Cc4ccc5c(c4)OCO5)CC3)O[C@H](OCCCCO)C2)c2ccccc21 | > 100 µM (inactive) | 84 µM | > 100 µM | > 100 µM |
| O=[N+]([O-])c1cc(C(F)(F)F)ccc1NCCc1c[nH]c2ccc(O)cc12 | 33.9 µM (inactive) | 52.8 µM | > 100 µM | 72.9 µM |
| CC(=O)c1ccccc1OCCOc1ncnc2sccc12 | > 100 µM (inactive) | > 100 µM | > 100 µM | > 100 µM |
| CSc1ncnc2c1ccn2CC(=O)Nc1ccc(C)c(C)c1 | 8.44 µM | > 100 µM | > 100 µM | > 25 µM |
| CCOC(=O)C1CCCN(c2ccc(NC(=O)c3snc4c(=O)[nH]cnc34)cc2)C1 (stereo unspecified) | 12.7 µM | 59.4 µM | > 100 µM | > 100 µM |
| CCC(CC)NC(=O)CON=C1c2ccccc2-c2ccccc21 | > 100 µM (inactive) | > 100 µM | > 100 µM | > 100 µM |
| CCn1c(O)c(/C=N/NC(=O)c2ccccc2)c(=O)n(CC)c1=S | 16.2 µM | > 100 µM | > 100 µM | > 100 µM |
| CC1CCN(CCOc2ccc(OCc3ccccc3)cc2)CC1 | 74 µM (inactive) | 98.4 µM | > 100 µM | > 100 µM |
| O=C(N/N=C/c1cc([N+](=O)[O-])ccc1O)C1CC1 | 4.14 µM | 58.9 µM | > 100 µM | > 100 µM |
| Cc1cc(Br)cc2c(C(=O)NCC3CCCO3)cc(-c3ccccc3)nc12 (stereo unspecified) | 95.6 µM (inactive) | > 100 µM | > 100 µM | > 100 µM |
| CCCN1C(=O)S/C(=C/c2ccc(N3CCOCC3)o2)C1=O | < 0.2 µM | 34.9 µM | > 100 µM | > 100 µM |
| CC(C)(C)[C@@H]1C=C(C(=O)Nc2ccccc2)O[C@H](OCc2ccc(CO)cc2)C1 | 75 µM (inactive) | 93.1 µM | > 100 µM | > 100 µM |
| CCOc1ccc(-c2cnc3n2CCC3)cc1 | 35 µM | > 100 µM | > 100 µM | > 100 µM |
| CCc1ccccc1NC(=O)CNC(=O)c1cc(C2CC2)nn1-c1ccccc1 | > 100 µM (inactive) | > 100 µM | > 100 µM | > 100 µM |
| O=C(CSc1nnc(-c2ccncc2)o1)c1cccc([N+](=O)[O-])c1 | 31.6 µM (inactive) | 46.9 µM | > 100 µM | 45.4 µM |
| COCCSc1nc2sc3c(c2c(=O)n1-c1ccccc1)CCN(C)C3 | 38.1 µM (inactive) | 41.9 µM | 54.3 µM | 53.3 µM |
| Cc1noc(NS(=O)(=O)c2ccc(N/C=C\C(=O)c3ccc4c(c3)OCO4)cc2)c1C | 34.2 µM | 91.5 µM | > 100 µM | 86 µM |
| O=C(COc1ccccc1)Nc1cccc(-c2nnc(-c3ccccc3)o2)c1 | > 100 µM (inactive) | > 100 µM | > 100 µM | > 100 µM |

| Compound | IC50 | IC50 [1] | IC90 [2] | IC90 [3] |
| --- | --- | --- | --- | --- |
| CC(C)(C)NCCCOc1ccc(Cl)cc1C(C)(C)C | 24.8 µM (inactive) | 45.9 µM | 51.6 µM | 26.9 µM |
| Cc1cc(C)cc(NC(=S)NN)c1 | 55.5 µM (inactive) | 78.3 µM | > 100 µM | > 100 µM |
| O=C(COc1ccc(Cl)cc1)OCC(=O)N1CCCCCC1 | 45.5 µM (inactive) | > 100 µM | > 100 µM | > 100 µM |
| CN(C)/N=C/c1ccc(/C=N/NC(N)=S)o1 | 15.2 µM | 90.8 µM | > 100 µM | 43.3 µM |
| CCOC(=O)c1c(C)oc2c1c(CN1CCN(C(=O)OCC)CC1)c(O)c1ccccc12 | 51.5 µM (inactive) | 51.2 µM | > 100 µM | > 100 µM |
| COc1cccc(-c2ccc(-c3noc(-c4ccccc4F)n3)c(OC)n2)c1 | 9.65 µM | > 100 µM | > 100 µM | > 12.5 µM |
| CCOC(=O)c1[nH]c2ccccc2c1NC(=O)Nc1ccc(OC)cc1 | > 100 µM (inactive) | > 100 µM | > 100 µM | > 100 µM |
| O=C1C(Cl)=C(N2CCCCCC2)C(=O)N1c1ccc(Br)cc1 | 7.59 µM (inactive) | 18.3 µM | > 100 µM | 19.4 µM |
| NC(=O)CN1C(=O)C(O)(CC(=O)/C=C\C=C\c2ccccc2)c2ccccc21 (stereo unspecified) | > 100 µM (inactive) | > 100 µM | > 100 µM | > 100 µM |
| O=C(Nc1ccc(Br)cc1)c1cccnc1N1CCCCC1 | > 100 µM (inactive) | > 100 µM | > 100 µM | > 100 µM |
| CN=C(Nc1cc(Cl)ccc1Cl)SC1CC(=O)N(c2ccc(C(=O)OC)cc2)C1=O (stereo unspecified) | > 100 µM (inactive) | > 100 µM | > 100 µM | > 100 µM |
| CCCCN(C)Cc1cc(=O)oc2cc3c(cc12)CCCC3 | 64.3 µM (inactive) | 80.1 µM | > 100 µM | 82.2 µM |
| CCOc1ccc(N(CC(=O)NCCSCc2ccccc2Cl)S(C)(=O)=O)cc1 | > 100 µM (inactive) | > 100 µM | > 100 µM | > 100 µM |
| CCCSc1nnc(NC(=O)c2sc3nc(-c4cccs4)ccc3c2N)s1 | 62.8 µM (inactive) | > 100 µM | > 100 µM | > 100 µM |
| CN1CCN(c2ccc(NC(=O)c3ccc(-c4cccc([N+](=O)[O-])c4)o3)cc2)CC1 | 5.87 µM (inactive) | 6.97 µM | 18.1 µM | 6.71 µM |
| O=C(Nc1ccccc1Br)c1cccc2ccccc12 | > 100 µM (inactive) | > 100 µM | > 100 µM | > 100 µM |
| COc1ccc2nc(NC(=O)c3ccc(Br)s3)sc2c1 | > 100 µM (inactive) | > 100 µM | > 100 µM | > 100 µM |
| O=c1oc(-c2ccco2)nc2sc3c(c12)CCCCC3 | 9.28 µM | 67.6 µM | 90.2 µM | 38.5 µM |
| C=CCNC1=C(Cl)C(=O)N(c2cccc(Cl)c2Cl)C1=O | 13.9 µM | 46.5 µM | > 100 µM | 30.2 µM |
